Patent US10745398B2, “2-(het)aryl-substituted fused heterocycle derivatives as pesticides” (Bayer CropScience Aktiengesellschaft, priority 2015, dated 2020)
One block for each compound: values may come before it.

Legend:
[1] = system: caterpillars of the armyworm (Spodoptera frugiperda); experiment: Spodoptera frugiperda - spray test; format: in vivo; conditions: application rate 500 g/ha, maize leaf discs, after 7 days
Protocol: (§1) Solvent: 78.0 parts by weight of acetone • • 1.5 parts by weight of dimethylformamide
(§2) Emulsifier: alkylaryl polyglycol ether
(§3) To produce a suitable active compound preparation, 1 part by weight of active compound is dissolved with the stated parts by weight of solvent and made up with water containing an emulsifier concentration of 1000 ppm until the desired concentration is attained. To produce further test concentrations, the preparation is diluted with emulsifier-containing water.
Leaf discs of maize (Zea mays) are sprayed with an active compound preparation of the desired concentration and, after drying, populated with caterpillars of the armyworm (Spodoptera frugiperda).
After 7 days, the efficacy in % is determined. 100% means that all the caterpillars have been killed; 0% means that no caterpillar has been killed.

[2] = log P (neutral) by HPLC on reversed-phase column (C 18), EEC Directive 79/831 Annex V.A8; format: physicochemical; conditions: HPLC reversed-phase C 18, 55° C., neutral range pH 7.8, ammonium hydrogencarbonate/acetonitrile
[3] = system: larvae of the mustard beetle (Phaedon cochleariae); experiment: Phaedon cochleariae - spray test; format: in vivo; conditions: application rate 500 g/ha, Chinese cabbage leaf discs, after 7 days
Protocol: as §1, §2, §3
After 7 days, the efficacy in % is determined. 100% means that all the beetle larvae have been killed; 0% means that no beetle larvae have been killed.

Structure (SMILES): CCS(=O)(=O)c1ccc(-n2nnn(-c3ccccc3Cl)c2=O)nc1-c1nc2cc(C(F)(F)F)ncc2n1C [Example I-4]
efficacy (caterpillars killed) [1]: 100%

Structure (SMILES): CCS(=O)(=O)c1ccc(N2CCN(c3ccc(Cl)cc3)C2=O)nc1-c1nc2cc(C(F)(F)F)ncc2n1C [Example I-5]
log P (neutral) [2]: Example I-5: logP (neutral): 3.86 ^1H-NMR(400.0 MHz, d6-DMSO): δ =
efficacy (beetle larvae killed) [3]: 100%
efficacy (caterpillars killed) [1]: 100%

Structure (SMILES): CCS(=O)(=O)c1ccc(-n2cc(-c3ccccc3)cn2)nc1-c1nc2cc(C(F)(F)F)ncc2n1C [Example I-9]
log P (neutral) [2]: Example I-9: logP (neutral): 3.92 ^1H-NMR(400.0 MHz, d6-DMSO): δ =
efficacy (beetle larvae killed) [3]: 100%
efficacy (caterpillars killed) [1]: 100%

Structure (SMILES): CCS(=O)(=O)c1ccc(-n2cc(-c3ccc(Cl)cc3)cn2)nc1-c1nc2cc(C(F)(F)F)ncc2n1C [Example I-10]
log P (neutral) [2]: Example I-10: logP (neutral): 4.33 ^1H-NMR(400.0 MHz, d6-DMSO): δ =
efficacy (beetle larvae killed) [3]: 100%

Structure (SMILES): CCS(=O)(=O)c1ccc(-n2cc(-c3ccc(F)cc3)cn2)nc1-c1nc2cc(C(F)(F)F)ncc2n1C [Example I-11]
log P (neutral) [2]: Example I-11: logP (neutral): 4.17 ^1H-NMR(400.0 MHz, d6-DMSO): δ =
efficacy (beetle larvae killed) [3]: 100%

Structure (SMILES): CCS(=O)(=O)c1ccc(-n2ccc(-c3ccccc3Cl)n2)nc1-c1nc2cc(C(F)(F)F)ncc2n1C [Example I-13]
log P (neutral) [2]: Example I-13: logP (neutral): 4.58 ^1H-NMR(400.0 MHz, d6-DMSO): δ =
efficacy (beetle larvae killed) [3]: 100%

Structure (SMILES): CCS(=O)(=O)c1ccc(-n2ccc(-c3ccco3)n2)nc1-c1nc2cc(C(F)(F)F)ncc2n1C [Example I-14]
log P (neutral) [2]: Example I-14: logP (neutral): 3.47 1H-NMR(601.6 MHz, d6-DMSO): □ =

Structure (SMILES): CCS(=O)(=O)c1ccc(-n2cnn(-c3c(F)cccc3F)c2=O)nc1-c1nc2cc(C(F)(F)F)ncc2n1C [Example I-20]
log P (neutral) [2]: Example I-20: logP (neutral): 3.13 1H-NMR(400.0 MHz, d6-DMSO): □ =

Structure (SMILES): CCS(=O)(=O)c1ccc(-n2nc(C(F)(F)F)n(-c3ccccc3)c2=O)nc1-c1nc2cc(C(F)(F)F)ncc2n1C [Example I-22]
efficacy (beetle larvae killed) [3]: 100%
efficacy (caterpillars killed) [1]: 100%

Structure (SMILES): CCS(=O)(=O)c1ccc(-n2cc(Cl)c(-c3ccc(F)c(Cl)c3)n2)nc1-c1nc2cc(C(F)(F)F)ncc2n1C [Example I-25]
log P (neutral) [2]: Example I-25: logP (neutral): 5.23 1H-NMR(400.0 MHz, d6-DMSO): □ =
efficacy (beetle larvae killed) [3]: 100%

Structure (SMILES): CCS(=O)(=O)c1ccc(-n2cnc(-c3cccnc3)n2)nc1-c1nc2cc(C(F)(F)F)ncc2n1C [Example I-27]
log P (neutral) [2]: Example I-27: logP (neutral): 2.54 1H-NMR(400.0 MHz, d6-DMSO): □ =
efficacy (beetle larvae killed) [3]: 100%
efficacy (caterpillars killed) [1]: 100%

Structure (SMILES): CCS(=O)(=O)c1ccc(-c2cc(-c3ccccc3)no2)nc1-c1nc2cc(C(F)(F)F)ncc2n1C [Example I-31]
log P (neutral) [2]: Example I-31: logP (neutral): 3.81 1H-NMR(400.0 MHz, d6-DMSO): □ =
efficacy (caterpillars killed) [1]: 100%

Structure (SMILES): CCS(=O)(=O)c1ccc(-n2cnn(-c3ccccc3F)c2=O)nc1-c1nc2cc(C(F)(F)F)ccc2n1C [Example I-34]
efficacy (beetle larvae killed) [3]: 100%
efficacy (caterpillars killed) [1]: 100%

chromatographic logP ([2]; reversed-phase HPLC column (C 18)): 3.16
Structure (SMILES): CCS(=O)(=O)c1ccc(-n2cnn(-c3ccccc3F)c2=O)nc1-c1cn2cnc(C(F)(F)F)cc2n1 [Example I-35, 4-{5-(Ethylsulfonyl)-6-[7-(trifluoromethyl)imidazo[1,2-c]pyrimidine-2-yl]pyridin-2-yl}-2-(2-fluorophenyl)-2,4-dihydro-3H-1,2,4-triazol-3-one]
efficacy (beetle larvae killed) [3]: 100%
efficacy (caterpillars killed) [1]: 100%
